Data taken from PMC4704828, “Effect of Methamphetamine on Spectral Binding, Ligand Docking and Metabolism of Anti-HIV Drugs with CYP3A4” (PLoS ONE, 2016).
Like-named read-outs stand apart in the source and are kept apart here.

How the values were obtained:
CYP3A4 [1] = target: CYP3A4 (Homo sapiens, UniProt P08684); assay: biochemical
Method: Histidine tagged CYP3A4 enzyme was expressed in E. coli and purified on Ni-NTA agarose column as described previously. Briefly, CYP3A4 cDNA was introduced into TOPP3 strain of E. coli by transformation and the cells were plated on LB ampicillin plate with tetracycline. The next day, a viable and isolated colony was grown in TB media for 48 h to induce CYP3A4. The cultures were harvested by centrifugation and CYP3A4 was extracted from the membrane using detergent followed by ultracentrifugation. The supernatant was loaded on a Ni-NTA agarose column for further purification. The purified enzyme was dialyzed and final preparation was stored at -80^οC until use.
The spectral change was recorded by using a UV/Vis double beam spectrophotometer (6800 UV/VIS JENWAY spectrophotometer) as described earlier. Briefly, 0.5 μM of purified CYP3A4 enzyme was incubated with 2 ml of 0.1 M HEPES buffer for 3 min and distributed equally between the sample and reference cuvettes. Depending upon the solvent used to solubilize methamphetamine or PIs, equal quantities of either methanol or water was added into the reference cuvette with final volume of the external solvent <1%. Increasing concentrations of methamphetamine was added to the sample cuvette while the same volume of solvent was added into the reference cuvette and the spectral change was recorded. For experiments involving PIs, different concentrations of PIs were added into the sample cuvette and the spectral change was recorded with a 2 min interval between each addition. […] Type I ligands displace the heme water ligand, thus shifting the iron spin equilibrium towards the high-spin form resulting in a spectrum, which is characterized by an increase in the absorbance at 390 nm (high spin) and a decrease at 420 nm (low spin). Type II ligands containing nitrogen heterocycles replace the water ligand to stabilize the low-spin form resulting in a spectrum that is characterized by an increase in the spectrum at ~430 nm and a decrease at ~400 nm. The effect of methamphetamine on the spectral binding of PIs was determined by incubating the CYP3A4 enzyme with 100 μM of methamphetamine and titrating with increasing concentrations of PIs.
The KD and δAmax were determined by fitting the curve (absorbance vs. concentration) with hyperbolic equation using non-regression analysis in sigma plot 11 (Systat Software, San Jose, CA). The p-values were determined using One way ANOVA with Dunnet’s post-hoc test and values <0.05 were considered statistically significant.

CYP3A4 [2] = settings: HLMs; for decrease in formation of hydroxy ritonavir: substrate ritonavir 2 μM
Method: Briefly, the metabolite formations were assessed in incubation mixtures (0.5 mL) containing 100 mM phosphate buffer (pH 7.4), HLMs (0.1 mg/mL), and 5 mM Mgcl2 [13, 14]. The incubation mixtures were pre-incubated with six different concentrations of Meth ranging from 3 μM to 1000 μM for 10 min, followed by the addition of 5 μl stock solution of PI. The entire mixture was incubated in water bath at 37°C for 15 min. […] Later, the reactions were initiated upon the addition of 100 μl of 25 mM NADPH (final concentration of 5 mM) solution to each of the tube and incubated in water bath at 37°C for 60 min. […] Then, the tubes were vortexed and centrifuged at 500 g for 10 min and supernatant was transferred into vials for analysis by LC-MS/MS.
Standard curves for each analyte with IS were generated in blank HLMs incubation mixture as described above. The carry over test was performed by injecting an extra blank following the injection of upper limit of quantitation (ULOQ) of the standard curve with an IS. The LC-MS/MS methods were developed for each analyte along with its metabolite using 3200 QTRAP LC-MS/MS system, AB Sciex. […] (Fig 1, Table 1). A source temperature of 500°C, ion spray voltage of 5500 V, curtain gas of 20, GS 1 & 2 of 50, and dwell time of 200 msec were used for the determination of all analytes. The MRM method parameters such as declustering potential (DP), entrance potential (EP), collision energy (CE), and collision cell exit potential (CXP), were listed in the Table 1 along with the MRM transitions.
All the analytes were separated on reverse phase XTerra ® MS C18 column (4.6X50mm, i.d, 3.5 μm) using a Shimadzu LC-20AD HPLC system (CA, USA). A binary gradient elution method comprising of mobile phases (acetonitrile with 0.1% formic acid and water with 0.1% formic acid) with a flow rate of 0.5 mL/min was employed. […] Data acquisition and analyses were performed using the Analyst 1.4.2 software package (Applied Biosystems, Foster City, CA, USA).

Chain of CYP3A4 (Homo sapiens, UniProt P08684) (P08684 whole entry): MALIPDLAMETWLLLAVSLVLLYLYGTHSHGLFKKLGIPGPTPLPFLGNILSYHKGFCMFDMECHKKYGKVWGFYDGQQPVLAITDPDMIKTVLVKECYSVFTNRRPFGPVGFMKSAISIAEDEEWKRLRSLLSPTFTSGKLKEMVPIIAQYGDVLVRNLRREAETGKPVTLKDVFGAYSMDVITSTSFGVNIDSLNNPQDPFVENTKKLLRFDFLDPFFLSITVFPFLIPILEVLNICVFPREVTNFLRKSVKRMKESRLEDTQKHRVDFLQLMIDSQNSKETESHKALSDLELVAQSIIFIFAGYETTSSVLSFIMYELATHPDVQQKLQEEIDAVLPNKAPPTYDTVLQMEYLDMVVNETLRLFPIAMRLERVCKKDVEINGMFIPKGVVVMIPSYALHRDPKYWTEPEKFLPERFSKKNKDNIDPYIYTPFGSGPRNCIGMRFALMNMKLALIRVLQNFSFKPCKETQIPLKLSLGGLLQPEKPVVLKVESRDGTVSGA

`COC(=O)N[C@H](C(=O)N[C@@H](Cc1ccccc1)[C@@H](O)CN(Cc1ccc(-c2ccccn2)cc1)NC(=O)[C@@H](NC(=O)OC)C(C)(C)C)C(C)(C)C` [Atazanavir] gave a δAmax (CYP3A4 [1]; human) of 0.0045 ± 0.0002.

In the case of `Cc1c(O)cccc1C(=O)N[C@@H](CSc1ccccc1)[C@H](O)CN1C[C@H]2CCCC[C@H]2C[C@H]1C(=O)NC(C)(C)C` [Nelfinavir], the δAmax (CYP3A4 [1]; human) is reported as 0.0068 ± 0.0001.

With `CCC[C@@]1(CCc2ccccc2)CC(O)=C([C@H](CC)c2cccc(NS(=O)(=O)c3ccc(C(F)(F)F)cn3)c2)C(=O)O1` [Tipranavir] the δAmax (CYP3A4 [1]; human) was 0.0050 ± 0.0005.

For `CN[C@@H](C)Cc1ccccc1` [methamphetamine], the Kd (CYP3A4 [1]; KD, methamphetamine alone titrated with CYP3A4, hyperbolic fit) was 204 ± 18 µM, the “spectral transition (low to high spin) with CYP3A4” value (CYP3A4 [1]; at saturating concentration of methamphetamine) was “approximately 20%” and the “type of spectral change upon binding to CYP3A4” value (CYP3A4 [1]; increase in absorbance at 390 nm, decrease at 418 nm) was “type I”. The δAmax (CYP3A4 [1]; methamphetamine alone titrated with CYP3A4, hyperbolic fit) was 0.016±0.001, the “decrease in formation of hydroxy ritonavir” value (CYP3A4 [2]; 100 μM methamphetamine) was 23.3 ± 3.8% and the “decrease in formation of hydroxy ritonavir” value (CYP3A4 [2]; 1000 μM methamphetamine) was 46.2 ± 3.3%. The “effect on metabolism of lopinavir (lopinavir M1 formation)” value (CYP3A4 [2]; methamphetamine 3 μM to 1000 μM, substrate lopinavir 10 μM) was “did not affect” and the “effect on metabolism of nelfinavir M8 (decrease in substrate concentration)” value (CYP3A4 [2]; methamphetamine 3 μM to 1000 μM, substrate nelfinavir M-8 1 μM) was “did not affect”.
